# Assay results as given in patent US20240352487A1, “MTOR -TARGETED MODIFICATION AND USES THEREOF” (UNIVERSITÉ LAVAL, priority 2021, published 2024).
# “Also recorded” adds a separate entry of the source.
# What was measured:
# mTORC1 signaling = experiment: mSc-TOSI mTORC1 signaling assay (FACS) in K562 cells; type: cell-based, human
# Method: (A) Schematic representation of the mScarlet-I mTOR Signaling Indicator (mSc-TOSI) degradation under mTORC1 signaling. (B) mSc-TOSI fluorescence intensity in bulk populations of K562 cells stably expressing the mTORC1 signaling reporter. Where indicated, cells were treated with the indicated concentration of mTOR inhibitor for 24 hours before FACS analysis.
# (A) Schematic representation of the mScarlet-I mTOR Signaling Indicator (mSc-TOSI) degradation under mTORC1 signaling. (B) mSc-TOSI fluorescence intensity in homozygous single cell-derived K562 clones harboring the MTOR-F2108L mutation with or without targeted CAR integration. Single cell-derived K562 clones were isolated in methylcellulose-based semi-solid RPMI media supplemented with 100 μM ouabain. Where indicated, cells were treated with the indicated concentration of mTOR inhibitor for 24 hours before FACS analysis.
# Active mTORC1 signaling results in rapid phosphorylation of the mSc-TOSI phosphodegron by S6K, ubiquitination, and degradation by the proteasome while its inhibition stabilizes the reporter.
# The percentage of fluorescent cells was quantified using a BD LSRII flow cytometer and 1×10^5 cells were analyzed for each condition. […] For mTORC1 signaling assays, cells were treated with the indicated concentration of rapamycin or AZD8055 for 24 hours before analysis. FACS sorting was performed using a BD FACS Aria Fusion flow cytometer for the saturation prime editing experiment and 5×10^5 cells were sorted for each condition. Flow cytometric data visualization and analysis were performed using FlowJo™ software (Tree Star).
# We then adapted a fluorescent mTORC1 signaling indicator^34 (mSc-TOSI) to assess the impact of rapamycin on mTORC1 signaling after targeted transgene integration to the MTOR locus. Active mTORC1 signaling results in rapid phosphorylation of the mSc-TOSI phosphodegron by S6K, ubiquitination, and degradation by the proteasome while its inhibition stabilizes the reporter^34 (FIG. 5A). We treated bulk populations of cells harboring the MTOR-F2108L mutation with or without targeted therapeutic transgene integration at the MTOR locus with different concentrations of rapamycin and AZD8055, a second-generation mTOR inhibitor.
# [1] = system: metastatic anaplastic thyroid carcinoma; conditions: patient with metastatic anaplastic thyroid carcinoma; cited from earlier work
# K562 cells = experiment: K562 cell growth in the presence of rapamycin; type: cell-based, human
# Method: (A) Prime editing and small indels quantification at MTOR as determined by BEAT and TIDE analysis from Sanger sequencing. K562 cells stably expressing the mSc-TOSI reporter were transfected with 0.75 μg of pCMV-PEmax vector, 0.25 μg of epegRNA (tevopreQ1) vector, and 0.1 μg of nick sgRNA vector. Genomic DNA was harvested 3 days post-transfection (before selection) and cells were treated (rapamycin) or not (vehicle) with 0.5 μM rapamycin until all non-resistant cells were eliminated.
# K562 cells were obtained from the ATCC (CCL-243) and NALM6 cells stably transduced to express a FLUC-T2A-RFP-IRES-Puro reporter gene cassette (Biosettia). K562 and NALM6 cells were maintained at 37° C. under 5% CO2 in RPMI medium supplemented with 10% FBS, penicillin-streptomycin, and GlutaMAX. Cells were routinely tested for the absence of mycoplasma contamination. Rapamycin (Cayman Chemicals, Cat 53123-88-9) was dissolved at 10 mg/mL in DMSO, working dilutions were prepared in water and stored at −20° C. AZD8055 ([…] Technologies) was dissolved at 10 mM in DMSO, working dilutions were prepared in water and stored at −20° C. DMSO alone was diluted in water and used as vehicle control. Ouabain octahydrate (Sigma) was dissolved at […] in hot water, working dilutions were prepared in water and stored at −20° C. K562 cells (2×10^5 cells/transfection) were transfected using a Lonza 4D Nucleofector™ with a SF nucleofection kit (Lonza) following manufacturer's recommendations with the indicated DNA concentrations. Cells were treated with the indicated concentration of rapamycin 3 days post-nucleofection until all non-resistant cells were eliminated. For the isolation of single cell-derived clones, simultaneous coselection and cloning was performed in methylcellulose-based semi-solid RPMI medium supplemented with 100 μM ouabain for 10 days.
# We then designed epegRNAs to validate the new MTOR-F2108 mutations individually. […] These observations confirmed that the five new mutations identified by saturation prime editing conferred resistance to rapamycin.
# MTOR locus [2] = experiment: Transgene knock-in at MTOR in CD3+ T cells, FACS quantification; type: cell-based, human
# Text: (A) Strategy for CRISPR-driven mScarlet-I gene knock-in to the MTOR locus using a linear double-stranded DNA (dsDNA) donor. […] The percentage of cells expressing the mScarlet-I reporter was quantified by FACS after selection. HA, homology arm. PA, polyadenylation signal. EGFP, enhanced green fluorescent protein. 2A self-cleaving peptide.
# (A) Strategy for the CRISPR-driven CAR-2A-EGFP gene knock-in to the MTOR locus using a linear double-stranded DNA (dsDNA) donor. […] The percentage of cells expressing the EGFP reporter was quantified by FACS after selection. HA; homology arm. PA; polyadenylation signal. EGFP; enhanced green fluorescent protein. 2A self-cleaving peptide.
# The percentage of cells expressing the EGFP reporter was quantified by FACS after selection. HA, homology arm. PA, polyadenylation signal. EGFP, enhanced green fluorescent protein. 2A self-cleaving peptide.
# dsDNA donors were produced as described previously^24. The donor sequences were cloned into a cloning vector and PCR amplification (25 cycles) was performed using Kapa-HiFi polymerase. DNA purification was performed by solid-phase reversible immobilization using AMPure XP (Beckman Coulter) magnetic beads. For ribonucleoprotein complex (RNP) formulation, 100 pmols of sgRNAs (IDT) were mixed with 0.8 μL of 100 mg/mL polyglutamic acid (Sigma) and 50 pmols of SpCas9 nuclease (IDT), as previously described^27. The RNP mix was incubated at 37° C. for 10 minutes and the dsDNA donors were added to the mix and incubated at room temperature for 5 minutes before transfection. Primary CD3^+ T cells (1×10^6 cells/transfection) were transfected using a Lonza 4D Nucleofector™ with a P3 nucleofection kit (Lonza) following manufacturer's recommendations with the indicated DNA concentrations. CD3+ T cells were resuspended in 80 μL media without IL-2 directly after nucleofection and incubated at 37° C. for 15 minutes before transfer into culture media plates. For AAV6 transduction, CD3+ T cells were resuspended in 80 μL media directly after nucleofection and AAV6 vectors were added. Cells were incubated at 37° C. for 8 hours at high cell density before transfer into culture media plates.
# The percentage of fluorescent cells was quantified using a BD LSRII flow cytometer and 1×10^5 cells were analyzed for each condition. For antibody staining, K562 cells were incubated with Fc receptor block (eBioscience Cat 16-9161-73) for 20 minutes on ice with PBS and 3% human serum (Sigma). Anti-human CD34 Alexa Fluor 488-conjugated antibody clone QBEnd10 (R and D systems Cat FAB7227G) and anti-human CD52 FITC-conjugated antibody clone HI186 were used for RQR8 and CD52 quantification, respectively. For mTORC1 signaling assays, cells were treated with the indicated concentration of rapamycin or AZD8055 for 24 hours before analysis. […]
# MTOR locus [3] = experiment: F2108L edited alleles in CD3+ T cells after rapamycin selection, TIDER; type: cell-based, human; conditions: 2 μg dsDNA donor, after rapamycin selection 15 days
# Text: (A) Strategy for the CRISPR-driven insertion of the F2108L mutation to the MTOR locus using a linear double-stranded DNA (dsDNA) donor. (B) Schematic representation of the SpCas9 target site and the dsDNA donor sequence harboring the F2108L and PAM mutations (WT sequence: 5′ portion corresponds to SEQ ID NO: 45 and 3′ portion corresponds to SEQ ID NO: 46; G49 donor: 5′ portion corresponds to SEQ ID NO: 47 and 3′ portion corresponds to SEQ ID NO: 48). […] The percentage of edited alleles was quantified by TIDER after selection.
# Receptor dimerization is induced with rapamycin. […] HA, homology arm. PA, polyadenylation signal. EGFP, enhanced green fluorescent protein. 2A self-cleaving peptide.
# dsDNA donors were produced as described previously^24. The donor sequences were cloned into a cloning vector and PCR amplification (25 cycles) was performed using Kapa-HiFi polymerase. DNA purification was performed by solid-phase reversible immobilization using AMPure XP (Beckman Coulter) magnetic beads. […]
# Genomic DNA was extracted with QuickExtract DNA extraction solution (EpiCentre) following manufacturer's recommendations. […] Sanger sequencing was performed on PCR amplicons to quantify the percentage of edited alleles using TIDE and TIDER^28,29. […]
# MTOR locus [4] = experiment: Transgene knock-in at MTOR in K562 cells, FACS quantification; type: cell-based, human; conditions: Rapamycin-treated K562 cells, FACS with antibody staining
# Method: (A) Strategy for the CRISPR-driven CAR-2A-EGFP gene knock-in to the MTOR locus using a plasmid donor. (B) K562 cells were transfected with 0.5 μg of SpCas9-sgRNA-expressing plasmid and 1 μg of donor plasmid. Cells were treated with 0.5 μM rapamycin 3 days post-transfection until all non-resistant cells were eliminated. The percentage of cells expressing the EGFP reporter was quantified by FACS after selection. HA; homology arm. PA; polyadenylation signal. EGFP; enhanced green fluorescent protein. 2A self-cleaving peptide.
# (A) Strategy for the CRISPR-driven RQR8 gene knock-in to the MTOR locus using a plasmid donor. (B) K562 cells were transfected with 0.5 μg of SpCas9-sgRNA-expressing plasmid and 1 μg of donor plasmid harboring. […] The percentage of cells expressing the RQR8 epitope marker was quantified by FACS after selection using an Alexa Fluor 488-conjugated anti-human CD34 antibody. […] (D) Same as in B, but the percentage of cells expressing CD52 was quantified using a FITC-conjugated anti-human CD52 antibody. […]
# The percentage of fluorescent cells was quantified using a BD LSRII flow cytometer and 1×10^5 cells were analyzed for each condition. […] Anti-human CD34 Alexa Fluor 488-conjugated antibody clone QBEnd10 (R and D systems Cat FAB7227G) and anti-human CD52 FITC-conjugated antibody clone HI186 were used for RQR8 and CD52 quantification, respectively. […]
compound,measurement,setting,value
COc1ccc(-c2ccc3c(N4CCOC[C@@H]4C)nc(N4CCOC[C@@H]4C)nc3n2)cc1CO [AZD8055],sensitivity of mTORC1 signaling to inhibitor,"mTORC1 signaling; CRISPR-engineered K562 cells harboring MTOR-F2108L, 24 hours",remained sensitive
CO[C@H]1C[C@@H]2CC[C@@H](C)[C@@](O)(O2)C(=O)C(=O)N2CCCC[C@H]2C(=O)O[C@H]([C@H](C)C[C@@H]2CC[C@@H](OCCO)[C@H](OC)C2)CC(=O)[C@H](C)/C=C(\C)[C@@H](O)[C@@H](OC)C(=O)[C@H](C)C[C@H](C)/C=C/C=C/C=C/1C [everolimus],response duration before relapse,[1],18 month
"CO[C@H]1C[C@@H]2CC[C@@H](C)[C@@](O)(O2)C(=O)C(=O)N2CCCC[C@H]2C(=O)O[C@H]([C@H](C)C[C@@H]2CC[C@@H](O)[C@H](OC)C2)CC(=O)[C@H](C)/C=C(\C)[C@@H](O)[C@@H](OC)C(=O)[C@H](C)C[C@H](C)/C=C/C=C/C=C/1C [rapamycin, Rapamycin]",mTORC1 signaling,"mTORC1 signaling; K562 cells after prime editing (F2108L) and selection, different concentrations of rapamycin",remained functional
same,mTORC1 signaling,mTORC1 signaling; K562 with F2108L mutation,complete rapamycin resistance
same,mTORC1 signaling,mTORC1 signaling; K562 with F2108V and F2108K,low levels of signaling
same,mTORC1 signaling,"mTORC1 signaling; K562 with F21081, F2108M, and F2108G",intermediate levels of signaling
same,mTORC1 signaling,mTORC1 signaling; K562 without epegRNA (pUC19) and with silent F2108F mutation,complete mTORC1 signaling inhibition
same,mTORC1 signaling,"mTORC1 signaling; MTOR-F2108L homozygous K562 clones with or without CAR integration, rapamycin treatment",remained completely functional
same,mTORC1 signaling,"mTORC1 signaling; adenine base edited K562 cells, in the presence of rapamycin",very low levels of mTORC1 signaling
same,mTORC1 signaling,"mTORC1 signaling; bulk K562 cells harboring MTOR-F2108L with or without transgene integration, 50 nM to 5 000 nM rapamycin, 24 hours",functional mTORC1 signaling; also recorded: slight mTORC1 signaling decrease
same,resistance of cells to rapamycin,K562 cells; ABE8e-targeted K562 cells,partial resistance
same,cell growth,"K562 cells; K562 cells harboring MTOR-F2108 substitutions, 0.5 μM rapamycin",grew robustly
same,resistance of cells to rapamycin,"K562 cells; K562 cells with silent F2108F mutation, 0.5 μM rapamycin",no resistance
"G49: gRNA, MTOR-Intron 45, target AGGTAGGATCTTCAGGCTCC (SEQ ID NO: 6); used as SpCas9 RNP with donor (listed as DNA, chemistry not given here; listed as Homo sapiens)",percentage of CD3+ T cells expressing the mScarlet-I reporter,"MTOR locus [2]; 1 μg dsDNA donor, after rapamycin selection 8 days",21%
same,percentage of CD3+ T cells expressing the mScarlet-I reporter,"MTOR locus [2]; 1 μg dsDNA donor, without selection",11%
same,percentage of CD3+ T cells expressing the mScarlet-I reporter,"MTOR locus [2]; 2 μg dsDNA donor, after rapamycin selection 8 days",31%
same,percentage of CD3+ T cells expressing the mScarlet-I reporter,"MTOR locus [2]; 2 μg dsDNA donor, without selection",18%
same,alleles harboring the F2108L mutation,MTOR locus [3],up to 63%
same,alleles harboring the PAM mutation,MTOR locus [3],≤ 69%
RQR8: 136-amino-acid epitope-based marker/suicide gene targeted to MTOR with plasmid donor (SEQ ID NO: 26),transgene expression,MTOR locus [4],higher transgene expression
